In this test the test system is isolated heart tissue. Kind of test: reduction of calcium-induced contraction of isolated heart tissue in vitro (calcium channel blocking activity). Conditions: degree of reduction of contraction of an isolated heart tissue induced by an addition of calcium ions in vitro.

For `CCOC(=O)C1=C(COCCN[C@@H](CC(=O)O)C(=O)O)NC(C)=C(C(=O)OC)C1c1ccccc1Cl` (stereo partly shown) [Compound of formula (1), N-(2-{[4-(2-chlorophenyl)-3-(ethoxycarbonyl)-5-(methoxycarbonyl)-6-methyl-1,4-dihydro-2-pyridinyl]methoxy}ethyl)aspartic acid], the “calcium channel blocking activity (ability to inhibit the movement of calcium into a cell)” value is given as “has been shown”.
